# Experimental data from patent US9802899B2, “Heterocyclic compounds as pesticides” (BAYER CROPSCIENCE AG, priority 2012, dated 2017).
# Assay: Determination of the log P values by HPLC (formic acid method)
# Type: physicochemical
# Conditions: reversed-phase HPLC column (C 18), reversed-phase column (C 18), acidic range (pH 3.4), 55° C.
# Procedure: 1) Description of Method for Determination of the Log P Values (Formic Acid Method)
# Eluents for determination in the acidic range (pH 3.4):
# Eluent A: acetonitrile+1 ml of formic acid/liter. Eluent B: water+0.9 ml of formic acid/liter.
# The lambda max values were determined in the maxima of the chromatographic signals using the UV spectra from 200 nm to 400 nm.
row,Compound,chromatographic logP
1,"Cc1nc(F)c(-n2ccc(N)n2)cc1F [1-(2,5-Difluoro-6-methylpyridin-3-yl)-1H-pyrazole-3-amine]",1.5
2,"N#Cc1ccc(Cl)nc1-n1ccc(NC(=O)c2ccccc2C(F)(F)F)n1 [Compound I-1-607, N-[1-(6-Chloro-3-cyanopyridin-2-yl)-1H-pyrazol-3-yl]-2-(trifluoromethyl)benzamide]",3.14
3,"Nc1ccn(-c2cc(F)cnc2F)n1 [1-(2,5-difluoropyridin-3-yl)-1H-pyrazole-3-amine]",1.15
4,Nc1ccn(-c2cccnc2Cl)n1 [1-(2-Chloropyridin-3-yl)-1H-pyrazole-3-amine],0.62
5,"O=C(Nc1ccn(-c2nc(F)c(F)cc2F)n1)c1ccccc1Br [Compound I-1-164, 2-Bromo-N-[1-(3,5,6-trifluoropyridin-2-yl)-1H-pyrazol-3-yl]benzamide]",2.68
6,"Cc1nc(-n2ccc(N)n2)c(F)cc1F [1-(3,5-Difluoro-6-methylpyridin-2-yl)-1H-pyrazole-3-amine]",1.25
7,Nc1ccn(-c2ncc(Cl)cc2F)n1 [1-(5-Chloro-3-fluoropyridin-2-yl)-1H-pyrazole-3-amine],1.27

# Same assay, conditions: reversed-phase column (C 18), acidic range (pH 3.4), 55° C.
row,Compound,log P
1,O=C(Nc1ccn(-c2c(Cl)cccc2Cl)n1)c1ccccc1Br [Compound I-1-122],2.88
2,O=C(Nc1ccn(-c2c(F)cccc2F)n1)c1ncncc1Cl [Compound I-1-330],2.14
3,CC(C)Cc1nn(C)c(C(=O)Nc2ccn(-c3c(F)cccc3F)n2)c1[N+](=O)[O-] [Compound I-1-289],3.19
4,O=C(Nc1cnn(-c2ncccc2Br)n1)c1ccccc1I [Compound I-2-18],2.43
5,O=C(Nc1ccn(-c2ncc(F)cc2F)n1)c1snnc1C1CC1 [Compound I-1-537],2.45
6,CCOc1cccc(F)c1-n1ccc(NC(=O)c2ccccc2Br)n1 [Compound I-1-399],2.87
7,O=C(Nc1ccn(-c2c(F)cccc2F)c1)c1cccnc1C(F)(F)F [Compound I-3-5],2.52
8,CCn1ncc(Cl)c1C(=O)Nc1ccn(-c2c(F)cccc2F)n1 [Compound I-1-308],2.61
9,O=C(Nc1cnn(-c2ncc(Cl)cc2Cl)n1)c1cccnc1C(F)(F)F [Compound I-2-64],2.54
10,C=CCN(C(=O)c1ccccc1C(F)(F)F)c1ccn(-c2c(F)cccc2F)n1 [Compound I-1-255],3.44
11,Cc1oc(C)c(C(=O)Nc2ccn(-c3c(F)cccc3F)n2)c1Br [Compound I-1-304],3.38
12,O=C(Nc1ccn(-c2ccccc2Cl)n1)c1sccc1C(F)(F)F [Compound I-1-375],3.15
13,Cn1nc(C(F)(F)F)c(C(=O)Nc2cnn(-c3ncccc3Cl)n2)c1F [Compound I-2-16],2.19
14,CCn1ncc(Cl)c1C(=O)Nc1ccn(-c2ncc(F)cc2F)n1 [Compound I-1-526],2.42
15,O=C(Nc1ccn(-c2c(F)cccc2F)n1)c1snnc1C1CC1 [Compound I-1-319],2.68
16,O=C(Nc1ccn(-c2c(F)cccc2F)n1)c1ccccc1C(F)F [Compound I-1-74],2.73
17,O=C(Nc1ccn(-c2ccc(Cl)cc2Cl)n1)c1ccccc1Br [Compound I-1-199],3.44
18,O=C(Nc1ccn(-c2ccccc2Cl)n1)c1cccnc1Br [Compound I-1-358],2.22
19,O=C(Nc1ccn(-c2cccc(F)c2F)n1)c1ccccc1Cl [Compound I-1-189],3.01
20,O=C(Nc1ccn(-c2ccccc2Cl)n1)c1c(F)cccc1F [Compound I-1-36],2.65
21,CCc1cccc(F)c1C(=O)Nc1ccn(-c2ncc(F)cc2F)n1 [Compound I-1-487],2.69
22,Cc1nnsc1C(=O)Nc1ccn(-c2c(F)cccc2F)n1 [Compound I-1-326],2.15
23,O=C(Nc1ccn(-c2ncc(F)cc2F)n1)c1cccnc1Br [Compound I-1-482],1.77
24,Cn1cc(C(=O)Nc2ccn(-c3c(F)cccc3F)n2)c(C(F)(F)F)c1 [Compound I-1-240],2.52

row,Compound,log P
1,COc1ccccc1-n1ccc(NC(=O)c2ccccc2I)n1 [Compound I-1-411],2.83
2,O=C(Nc1cnn(-c2ncc(F)cc2F)n1)c1ncccc1C(F)(F)F [Compound I-2-84],2.28
3,CCCc1nn(C)c(C(=O)Nc2ccn(-c3ncc(F)cc3F)n2)c1Cl [Compound I-1-531],3.42
4,C=CCN(C(=O)c1ccccc1Cl)c1ccn(-c2ccccc2Cl)n1 [Compound I-1-26],3.56
5,Cn1ncc(I)c1C(=O)Nc1ccn(-c2ncc(F)cc2F)n1 [Compound I-1-540],2.20
6,O=C(Nc1ccn(-c2cccc(F)c2F)n1)c1ccccc1C(F)(F)F [Compound I-1-64],3.02
7,O=C(Nc1nn(-c2ccccc2Br)nc1Cl)c1cccnc1C(F)(F)F [Compound I-2-28],2.77
8,Cc1nn(C)c(F)c1C(=O)Nc1ccn(-c2ccccc2Cl)n1 [Compound I-1-382],2.15
9,O=C(c1ccccc1C(F)(F)F)N(CC1CC1)c1ccn(-c2ncc(F)cc2F)n1 [Compound I-1-471],3.62
10,O=C(Nc1nn(-c2c(F)cccc2F)cc1Cl)c1ccccc1C(F)(F)F [Compound I-1-251],2.73
11,O=C(Nc1ccn(-c2ncc(F)cc2Cl)n1)c1ccccc1C(F)(F)F [Compound I-1-183],2.64
12,O=C(Nc1ccn(-c2ccccc2Cl)n1)c1ccccc1C(F)(F)F [Compound I-1-14],2.96
13,O=C(Nc1ccn(-c2ncccc2Br)n1)c1ccccc1I [Compound I-1-554],2.42
14,O=C(Nc1ccn(-c2c(F)cccc2F)n1)c1cnccc1C(F)(F)F [Compound I-1-94],2.16
15,Cc1ccccc1C(=O)Nc1ccn(-c2ncc(F)cc2F)n1 [Compound I-1-499],2.36
16,Cc1onc(C(=O)Nc2ccn(-c3c(F)cccc3F)n2)c1C [Compound I-1-297],2.76
17,O=C(Nc1ccn(-c2ccccc2[N+](=O)[O-])n1)c1ccccc1Cl [Compound I-1-125],2.46
18,N#Cc1cc(F)ccc1-n1ccc(NC(=O)c2c(F)cccc2C(F)(F)F)n1 [Compound I-1-632],2.64
19,Cn1cc(C(=O)Nc2ccn(-c3ncc(F)cc3F)n2)c(C(F)(F)F)c1 [Compound I-1-156],2.31
20,O=C(Nc1ccn(-c2ncc(F)cc2F)n1)c1c(F)cccc1Cl [Compound I-1-484],2.38
21,Cn1nc(C(F)(F)F)c(C(=O)Nc2ccn(-c3ccccc3Br)n2)c1F [Compound I-1-59],3.00
22,O=C(Nc1ccn(-c2ncc(F)cc2F)n1)c1ccccc1OC(F)F [Compound I-1-459],2.50
23,N#Cc1c(F)cccc1-n1ccc(NC(=O)c2ccccc2I)n1 [Compound I-1-625],2.63
24,O=C(Nc1cnn(-c2c(F)cccc2F)n1)c1c(F)cccc1F [Compound I-2-77],2.59

row,Compound,log P
1,O=C(Nc1ccn(-c2ncccc2F)n1)c1cccnc1OC(F)(F)F [Compound I-1-577],2.33
2,Cc1nonc1C(=O)Nc1ccn(-c2ncc(F)cc2F)n1 [Compound I-1-542],2.22
3,O=C(Nc1ccn(-c2ncc(F)cc2F)n1)c1nccnc1Cl [Compound I-1-485],1.89
4,Cc1cc(C(=O)Nc2ccn(-c3c(F)cccc3F)n2)n(C)n1 [Compound I-1-232],2.10
5,Cn1ncc(F)c1C(=O)Nc1ccn(-c2ncc(F)cc2F)n1 [Compound I-1-538],2.03
6,O=C(Nc1cnn(-c2ccccc2Br)n1)c1cccnc1C(F)(F)F [Compound I-2-8],2.58
7,CCc1cc(NC(=O)c2cccnc2C(F)(F)F)nn1-c1ccc(F)cc1F [Compound I-1-204],3.58
8,N#Cc1c(F)cccc1-n1ccc(NC(=O)c2c(F)cccc2C(F)(F)F)n1 [Compound I-1-623],2.68
9,Cc1nn(C)c(C(=O)Nc2ccn(-c3c(F)cccc3F)n2)c1C(F)F [Compound I-1-294],2.34
10,O=C(Nc1ccn(-c2cc(F)c(F)cc2F)n1)c1ccccc1I [Compound I-1-196],4.10
11,CCn1ncc(Br)c1C(=O)Nc1ccn(-c2c(F)cccc2F)n1 [Compound I-1-299],2.84
12,O=C(Nc1ccn(-c2c(F)cccc2F)n1)c1cncnc1C(F)(F)F [Compound I-1-295],2.25
13,CCc1nn(C)c(C(=O)Nc2ccn(-c3c(F)cccc3F)n2)c1Cl [Compound I-1-316],3.24
14,Cn1cncc1C(=O)Nc1ccn(-c2c(F)cccc2F)n1 [Compound I-1-644],0.99
15,CC(C)N(C(=O)c1ccccc1C(F)(F)F)c1ccn(-c2c(F)cccc2F)n1 [Compound I-1-260],3.50
16,O=C(Nc1ccn(-c2ncc(Cl)cc2F)n1)c1c(F)cccc1F [Compound I-1-588],2.60
17,Cc1c([N+](=O)[O-])c(C(=O)Nc2ccn(-c3ncc(F)cc3F)n2)nn1C [Compound I-1-448],1.83
18,Cc1nc(-n2ccc(NC(=O)c3cccnc3C(F)(F)F)n2)c(F)cc1F [Compound I-1-440],2.38
19,O=C(Nc1ccn(-c2c(F)cccc2F)n1)c1ccccc1OC(F)(F)F [Compound I-1-79],2.96
20,O=C(Nc1cnn(-c2ncccc2F)n1)c1cccnc1Br [Compound I-2-47],1.49
21,O=C(Nc1nn(-c2ncccc2Cl)nc1Cl)c1ccccc1I [Compound I-2-60],2.57
22,O=C(Nc1cnn(-c2c(F)cccc2F)n1)c1ncccc1C(F)(F)F [Compound I-2-80],2.78
23,Cc1cc(NC(=O)c2ccccc2I)nn1-c1ccc(F)cc1F [Compound I-1-214],3.73
24,O=C(Nc1ccn(-c2ncc(F)cc2F)n1)c1cccnc1Cl [Compound I-1-152],1.72
